Test [1] in a line: (§1) Antagonist activity at Escherichia coli DH5alpha LasR receptor assessed as inhibition of OdDHL-induced response by beta-galctosidase reporter gene assay. The test is classed as functional.
The nature of test [2]: Agonist activity at Escherichia coli DH5alpha LasR receptor by beta-galctosidase reporter gene assay. The test is classed as functional.
Test [3] deals with T1, Transcriptional activator protein LuxR (Vibrio fischeri (strain ATCC 700601 / ES114), UniProt P35327).
T1 sequence (P35327 whole entry): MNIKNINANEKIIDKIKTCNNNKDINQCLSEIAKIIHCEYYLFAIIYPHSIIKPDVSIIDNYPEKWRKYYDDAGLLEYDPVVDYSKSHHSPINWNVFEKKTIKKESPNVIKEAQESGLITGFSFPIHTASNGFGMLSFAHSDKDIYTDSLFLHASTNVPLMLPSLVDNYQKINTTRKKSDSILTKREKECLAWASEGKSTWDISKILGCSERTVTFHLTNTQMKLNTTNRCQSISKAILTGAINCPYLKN
Put plainly: (§2) Antagonist activity at Vibrio fischeri ES114 LuxR receptor assessed as inhibition of OHHL-induced response by luciferase reporter gene assay. In kind it is functional, Aliivibrio fischeri.

The target of test [4] is T2, Transcriptional activator protein TraR (Agrobacterium tumefaciens, UniProt P33905).
T2 sequence (P33905 whole entry): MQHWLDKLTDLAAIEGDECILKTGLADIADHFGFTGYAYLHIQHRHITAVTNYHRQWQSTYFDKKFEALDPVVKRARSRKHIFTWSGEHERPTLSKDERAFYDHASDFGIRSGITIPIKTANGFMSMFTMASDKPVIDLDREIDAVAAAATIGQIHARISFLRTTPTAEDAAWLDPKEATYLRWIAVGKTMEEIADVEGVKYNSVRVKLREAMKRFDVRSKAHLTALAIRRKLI
Put plainly: Antagonist activity at Agrobacterium tumefaciens WCF47 TraR receptor assessed as inhibition of OOHL-induced response by beta-galctosidase reporter gene assay.

The subject of test [5] is Escherichia coli. Briefly: Agonist activity at Escherichia coli DH5alpha LasR receptor at 100 uM by beta-galctosidase reporter gene assay relative to OdDHL. In kind it is functional.
Test [6] addresses T3, Transcriptional activator protein LuxR (Vibrio fischeri (strain ATCC 700601 / ES114)) (UniProt P35327).
T3 sequence (whole entry): T1 sequence (P35327 whole entry)
The test is described as §2. The test is classed as functional. As to conditions: Aliivibrio fischeri, concentration not given here.

For test [7], the system named is Escherichia coli. Described as §1. In kind it is functional. Particulars: dose or concentration not given here.
Test [8] concerns the target T3, Transcriptional activator protein LuxR (Vibrio fischeri (strain ATCC 700601 / ES114)). Briefly: Agonist activity at Vibrio fischeri ES114 LuxR receptor at 100 uM by luciferase reporter gene assay relative to OHHL. In kind it is functional. As to conditions: Aliivibrio fischeri.

Structures are written as SMILES.

In the case of `COc1ccc(CCC(=O)N[C@H]2CCOC2=O)cc1`, the IC50 in test [1] came out at 6800 nM.
Regarding `CCCC(=O)CC(=O)N[C@H]1CCOC1=O`, the EC50 in test [2] is above 10000 nM.
As for `O=C(CCc1cccc(C(F)(F)F)c1)N[C@H]1CCOC1=O`, in test [3], the IC50 worked out at 500 nM.
Take `O=C(CCc1ccc(Br)cc1)N[C@H]1CCOC1=O`: the IC50 in test [1] is 340 nM.
`O=C(CCc1ccc(I)cc1)N[C@H]1CCOC1=O`: the values for the IC50 in test [3] and in test [4] were 630 nM and 2100 nM, respectively.
For `O=C(Cc1ccc2ccccc2c1)N[C@H]1CCOC1=O`, the concentration for half-maximal inhibition (IC50) in test [3] amounted to 940 nM; in test [4], 4200 nM.
As to `Cc1cccc(CCC(=O)N[C@H]2CCOC2=O)c1`, the IC50 is 8900 nM in test [1] and 2100 nM in test [3].
As to `O=C(COc1ccc(C(F)(F)F)cc1)N[C@H]1CCOC1=O`, the IC50 in test [4] worked out at 1600 nM.
Turning to `O=C(Cc1cccc(C(F)(F)F)c1)N[C@H]1CCOC1=O`, in test [3], the IC50 amounted to 1400 nM.
For the molecule `O=C(Cc1cccc2ccccc12)N[C@H]1CCOC1=O`, in test [3], the IC50 amounted to 1300 nM.
Take `O=C(CCc1ccc(C(F)(F)F)cc1)N[C@H]1CCOC1=O`: the results for the IC50 in test [3] and in test [4] were 2200 nM and 210 nM, respectively. The molecule also came in with a 50% effective concentration (EC50) in test [2] above 10000 nM.
On to `O=C(Cc1ccc(Cl)c(Cl)c1)N[C@H]1CCOC1=O`, for which the 50% inhibitory concentration (IC50) in test [4] was determined as 2400 nM.
Consider `O=C(COc1cccc([N+](=O)[O-])c1)N[C@H]1CCOC1=O`, for which the half-inhibitory concentration (IC50) in test [3] was 2400 nM.
With `O=C(Cc1ccc(SC(F)(F)F)cc1)N[C@H]1CCOC1=O`, the concentration for half-maximal inhibition (IC50) in test [3] came out at 1300 nM; in test [4] it was 4700 nM. Also, the Activity in the test with Escherichia coli [5] is 65%.
For `O=C(Cc1ccc(I)cc1)N[C@H]1CCOC1=O`, the IC50 in test [1] turned out to be 1720 nM; in test [4], 1250 nM.
For the molecule `O=C(Cc1cccc(I)c1)N[C@H]1CCOC1=O`, the half-maximal inhibitory concentration (IC50) in test [1] stood at 4630 nM.
Turning to `Cc1cccc(OCC(=O)N[C@H]2CCOC2=O)c1`, the half-inhibitory concentration (IC50) in test [1] turned out to be 7800 nM; in test [4], 1100 nM.
`O=C(CCc1ccc(F)cc1)N[C@H]1CCOC1=O`: the IC50 in test [1] amounted to 12000 nM; in test [3], 2700 nM.
With `O=C(Cc1cccc([N+](=O)[O-])c1)N[C@H]1CCOC1=O`, the IC50 in test [1] turned out to be 610 nM.
Take `O=C(CCc1ccc(Cl)cc1)N[C@H]1CCOC1=O`: the IC50 in test [1] worked out at 2200 nM; in test [3], 970 nM; in test [4], 3300 nM.
With `COc1cccc(CC(=O)N[C@H]2CCOC2=O)c1`, in test [6], the inhibition was found to be 85%. For the same molecule, the IC50 in test [3] came to 2500 nM.
Regarding `O=C(Cc1ccc([N+](=O)[O-])cc1)N[C@H]1CCOC1=O`, the IC50 in test [3] was 960 nM; in test [4], 2250 nM.
Turning to `O=C(CCc1ccc([N+](=O)[O-])cc1)N[C@H]1CCOC1=O`, the inhibition with Escherichia coli [7] turned out to be 67%. The IC50 was determined as 3000 nM in test [1], 990 nM in test [3] and 1600 nM in test [4].
`O=C(CCc1ccc2c(c1)OCO2)N[C@H]1CCOC1=O`: in test [1], the 50% inhibitory concentration (IC50) turned out to be 3400 nM.
For `O=C(COc1ccc(Cl)cc1)N[C@H]1CCOC1=O`, the half-maximal inhibitory concentration (IC50) in test [1] stood at 4700 nM; in test [4] it was 620 nM.
Take `CSc1cccc(CC(=O)N[C@H]2CCOC2=O)c1`: the IC50 in test [3] turned out to be 1500 nM.
On to `N#Cc1cccc(CC(=O)N[C@H]2CCOC2=O)c1`, for which, in test [8], the Activity stood at 75%.
Turning to `COc1ccc(OCC(=O)N[C@H]2CCOC2=O)cc1`, the IC50 in test [4] is 4300 nM.
In the case of `O=C(Cc1cc(C(F)(F)F)cc(C(F)(F)F)c1)N[C@H]1CCOC1=O`, the concentration giving a half-maximal response (EC50) in test [2] is 6300 nM. For the same molecule, the Activity in test [8] was determined as 70%.
Regarding `O=C(COc1ccc(Br)cc1)N[C@H]1CCOC1=O`, in the test with Escherichia coli [7], the inhibition came out at 67%. Moreover, the IC50 in test [1] was determined as 2100 nM; in test [3], 3000 nM; in test [4] it was 510 nM.
`O=C(CCc1cccc([N+](=O)[O-])c1)N[C@H]1CCOC1=O`: the IC50 in test [1] amounted to 3400 nM; in test [3] it was 880 nM.
Consider `O=C(CCc1cccc(Br)c1)N[C@H]1CCOC1=O`, for which the 50% inhibitory concentration (IC50) was found to be 3300 nM in test [1] and 530 nM in test [3].
For `CCCCCC(=O)CC(=O)N[C@H]1CCOC1=O`, the EC50 in test [2] was above 10000 nM.
Take `Cc1cccc(CC(=O)N[C@H]2CCOC2=O)c1`: the inhibition in test [6] worked out at 91%. Besides, the half-inhibitory concentration (IC50) in test [3] was 2000 nM.
With `CSc1ccc(CC(=O)N[C@H]2CCOC2=O)cc1`, the results for the half-maximal inhibitory concentration (IC50) in test [3] and in test [4] were 2100 nM and 8400 nM, respectively.
`O=C(COc1ccc(OC(F)(F)F)cc1)N[C@H]1CCOC1=O` displayed an EC50 in test [2] of 6300 nM. In addition, in the test with Escherichia coli [5], the Activity stood at 30%.
Take `CCCCCCCCCC(=O)CC(=O)N[C@H]1CCOC1=O`: in test [2], the EC50 was 10 nM. In other words, the double-digit nanomolar range.
For `Cc1ccc(OCC(=O)N[C@H]2CCOC2=O)cc1`, in test [4], the IC50 worked out at 1800 nM.
On to `O=C(CCc1cccc(I)c1)N[C@H]1CCOC1=O`, for which the 50% inhibitory concentration (IC50) stood at 1800 nM in test [1] and 390 nM in test [3].
Turning to `O=C(COc1ccc([N+](=O)[O-])cc1)N[C@H]1CCOC1=O`, in test [4], the half-maximal inhibitory concentration (IC50) was found to be 290 nM.
Turning to `O=C(Cc1ccc(F)c(C(F)(F)F)c1)N[C@H]1CCOC1=O`, the concentration for half-maximal inhibition (IC50) in test [3] worked out at 1000 nM.
Turning to `Cc1ccc(CCC(=O)N[C@H]2CCOC2=O)cc1`, the half-inhibitory concentration (IC50) in test [1] is 4300 nM; in test [3] it was 2200 nM.
Take `CSc1ccc(CCC(=O)N[C@H]2CCOC2=O)cc1`: the half-inhibitory concentration (IC50) was found to be 1700 nM in test [3] and 1100 nM in test [4].
Take `O=C(COc1ccc(F)cc1)N[C@H]1CCOC1=O`: in test [4], the IC50 was 2700 nM.
Take `O=C(COc1ccc(I)cc1)N[C@H]1CCOC1=O`: in the test with Escherichia coli [7], the inhibition came out at 63%. In addition, the results for the IC50 in test [1], in test [3] and in test [4] were 2000 nM, 1900 nM and 440 nM, respectively.

Values taken from ChEMBL document CHEMBL1154499 (Bioorg Med Chem Lett, 2008).
